Common to all, as to format: functional, cell-based
Assay [1] is described as follows: Cytotoxicity against human OVCA2780 cells after 48 hrs by MTT colorimetric assay. The settings on record: A2780, 48 h. A general note: Tetrazolium assays rely on reduction of a dye to a coloured formazan, in cell work by metabolically active cells.
For a further assay, the system named is K562. As to the kind of experiment: Cytotoxicity against human K562 cells after 48 hrs by MTT colorimetric assay. The settings on record: K562, 48 h.
The next assay has as its system A549. As to the kind of experiment: Cytotoxicity against human A549 cells after 48 hrs by MTT colorimetric assay. The settings on record: A549, 48 h.
Another assay relates to DU-145. The assay can be described thus: Cytotoxicity against human DU145 cells after 48 hrs by MTT colorimetric assay. The settings on record: DU-145, 48 h.
The subject of another assay is MCF7. The assay can be described thus: Cytotoxicity against human MCF7 cells after 48 hrs by MTT colorimetric assay. The note with it: MCF7, 48 h.

In brackets after ≈: the same amount, converted by molar mass.

The term IC50 denotes the concentration that gives 50% inhibition. A high value points to a need for much substance.

`C=C1[C@@H]2CC[C@H]3[C@@]45CO[C@@](O)([C@@H](O)[C@@H]4C(C)(C)C=C[C@@H]5O)[C@]3(C2)[C@@H]1O`: the IC50 in assay [1] was over 200 µg/mL; in the assay on K562, over 100 µg/mL; in the assay with A549 it was over 100 µg/mL; in the assay on DU-145 it was over 100 µg/mL; in the assay with MCF7 it was over 100 µg/mL.
As to `C=C1C(=O)[C@]23C[C@H]1CC[C@H]2[C@@]12CO[C@@]3(O)[C@@H](OC(C)=O)[C@@H]1C(C)(C)C=CC2=O`, the IC50 was found to be 11.9 µg/mL (≈ 30.9 µM) in assay [1]; 25 µg/mL (≈ 64.7 µM) in the assay with K562; 31 µg/mL (≈ 80.2 µM) in the assay on A549; 80.6 µg/mL (≈ 209 µM) with DU-145; 20.1 µg/mL (≈ 51.9 µM) with MCF7.
For `C=C1C(=O)[C@]23C[C@H]1CC[C@H]2[C@]12CO[C@@H](CC1=O)C(C)(C)[C@H]2[C@H](OC(=O)CCCCl)C3=O` the same measures were 42.6 µg/mL (≈ 95 µM), over 100 µg/mL, 68.1 µg/mL (≈ 152 µM), over 100 µg/mL and over 100 µg/mL.
For `C=C1C(=O)[C@]23C[C@H]1CC[C@H]2[C@]1(COC(C)=O)C(=O)C=CC(C)(C)[C@H]1[C@H](OC(C)=O)C3=O` the same measures were 9.71 µg/mL (≈ 22.7 µM), 28.1 µg/mL (≈ 65.6 µM), 61.8 µg/mL (≈ 144 µM), 17.9 µg/mL (≈ 41.8 µM) and 24.6 µg/mL (≈ 57.4 µM).
For `C=C1C(=O)[C@]23C[C@H]1CC[C@H]2[C@@]12CO[C@@]3(O)C(=O)[C@@H]1C(C)(C)C=CC2=O` the same measures were 7.28 µg/mL (≈ 21.3 µM), 4.94 µg/mL (≈ 14.4 µM), 33.2 µg/mL (≈ 96.9 µM), 12 µg/mL (≈ 35 µM) and 59.6 µg/mL (≈ 174 µM).
For the molecule `C=C(C(=O)O)[C@@H]1CC[C@@H]2[C@@H](C1)C(=O)[C@@H](O)[C@@H]1C(C)(C)[C@@H]3CC(=O)[C@@]21CO3`, the IC50 is over 200 µg/mL in assay [1]; over 100 µg/mL in the assay on K562; over 200 µg/mL in the assay on A549; over 200 µg/mL in the assay with DU-145; over 200 µg/mL in the assay on MCF7.
On to `C=C1C(=O)[C@]23C[C@H]1CC[C@H]2[C@]12CO[C@@H](CC1=O)C(C)(C)[C@H]2[C@H](OC(=O)CBr)C3=O`, for which the IC50 in assay [1] came to 14.9 µg/mL (≈ 32.1 µM); in the assay on K562 it was 4.54 µg/mL (≈ 9.76 µM); with A549, 10.9 µg/mL (≈ 23.4 µM); in the assay on DU-145, 26.6 µg/mL (≈ 57.1 µM); in the assay with MCF7, 67.1 µg/mL (≈ 144 µM).
On the same counts, the results for `C=C1C(=O)[C@]23C[C@H]1CC[C@H]2[C@]1(COC3=O)C(=O)C=CC(C)(C)[C@H]1C=O` are 20.7 µg/mL (≈ 60.3 µM), 0.27 µg/mL (≈ 0.789 µM), 2.26 µg/mL (≈ 6.6 µM), 47.4 µg/mL (≈ 138 µM) and 0.257 µg/mL (≈ 0.751 µM).
On the same counts, the results for `C=C1[C@@H]2CC[C@H]3[C@@]45CO[C@@](O)([C@@H](O)[C@@H]4C(C)(C)CC[C@@H]5O)[C@]3(C2)[C@@H]1O` are over 200 µg/mL, over 100 µg/mL, over 100 µg/mL, over 100 µg/mL and over 100 µg/mL.
On the same counts, the results for `C=C1C(=O)[C@]23C[C@H]1CC[C@H]2[C@]1(COC3=O)C(=O)C=CC(C)(C)[C@H]1C(=O)O` are over 200 µg/mL, over 100 µg/mL, over 100 µg/mL, over 100 µg/mL and over 100 µg/mL.
`C[C@H]1C(=O)[C@]23C[C@H]1CC[C@H]2[C@@]12CO[C@@]3(O)[C@@H](O)[C@@H]1C(C)(C)CCC2=O`: the IC50 was over 200 µg/mL in assay [1]; over 100 µg/mL in the assay with K562; over 100 µg/mL in the assay on A549; over 200 µg/mL in the assay with DU-145; over 200 µg/mL in the assay with MCF7.
Take `C=C1C(=O)[C@]23C[C@H]1CC[C@H]2[C@@]12CO[C@@]3(O)[C@@H](O)[C@@H]1C(C)(C)C=CC2=O`: the concentration for half-maximal inhibition (IC50) in assay [1] stood at 1.8 µg/mL (≈ 5.23 µM); with K562, 1.32 µg/mL (≈ 3.83 µM); with A549, 2.49 µg/mL (≈ 7.23 µM); with DU-145, 1.34 µg/mL (≈ 3.89 µM); in the assay with MCF7, 0.15 µg/mL (≈ 0.436 µM).
On the same counts, the results for `C=C1C(=O)[C@]23C[C@H]1CC[C@H]2[C@]12CO[C@@H](CC1=O)C(C)(C)[C@H]2[C@H](OC(=O)CCCl)C3=O` are 10.5 µg/mL (≈ 24.1 µM), 8.88 µg/mL (≈ 20.4 µM), 20.3 µg/mL (≈ 46.6 µM), 51 µg/mL (≈ 117 µM) and 22.7 µg/mL (≈ 52.1 µM).
For `C=C(C(=O)O)[C@@H]1CC[C@@H]2[C@@H](C1)C(=O)C(O)=C1C(C)(C)[C@@H]3CC(=O)[C@]12CO3` the same measures were over 200 µg/mL, over 200 µg/mL, over 200 µg/mL, over 200 µg/mL and over 200 µg/mL.
Regarding `C=CC(=O)O[C@H]1[C@@H]2C(C)(C)C=CC(=O)[C@]23CO[C@]1(O)[C@@]12C[C@@H](CC[C@@H]31)C(=C)C2=O`, the IC50 in assay [1] came out at 4.33 µg/mL (≈ 10.9 µM); in the assay with K562, 5.05 µg/mL (≈ 12.7 µM); in the assay on A549, 33 µg/mL (≈ 82.8 µM); with DU-145, 41.2 µg/mL (≈ 103 µM); in the assay with MCF7, 6.56 µg/mL (≈ 16.5 µM).
For `C=C1C(=O)[C@]23C[C@H]1CC[C@H]2[C@]12CO[C@@H](CC1=O)C(C)(C)[C@H]2[C@H](OC(C)=O)C3=O` the same measures were 11.3 µg/mL (≈ 29.2 µM), 19.3 µg/mL (≈ 49.9 µM), 10.1 µg/mL (≈ 26.1 µM), 31.9 µg/mL (≈ 82.5 µM) and 36.7 µg/mL (≈ 94.9 µM).
On the same counts, the results for `C=C1C(=O)[C@]23C[C@H]1CC[C@H]2[C@@]12CO[C@@]3(O)[C@@H](OC(=O)CBr)[C@@H]1C(C)(C)C=CC2=O` are 2.06 µg/mL (≈ 4.43 µM), 1.5 µg/mL (≈ 3.22 µM), 4.86 µg/mL (≈ 10.4 µM), 4.52 µg/mL (≈ 9.71 µM) and 0.85 µg/mL (≈ 1.83 µM).
On the same counts, the results for `C=C1C(=O)[C@]23C[C@H]1CC[C@H]2[C@]12CO[C@@H](CC1=O)C(C)(C)[C@H]2[C@H](O)C3=O` are 16.9 µg/mL (≈ 49.2 µM), 3.73 µg/mL (≈ 10.8 µM), 27.2 µg/mL (≈ 79 µM), 33.2 µg/mL (≈ 96.3 µM) and 8.87 µg/mL (≈ 25.8 µM).
`C=C1[C@@H]2CC[C@H]3[C@@]45CO[C@@](O)([C@@H](O)[C@@H]4C(C)(C)C=CC5=O)[C@]3(C2)[C@@H]1O`: the IC50 in assay [1] was 52.8 µg/mL (≈ 152 µM); in the assay on K562, 33.2 µg/mL (≈ 96 µM); in the assay with A549 it was 15.3 µg/mL (≈ 44.1 µM); in the assay with DU-145, over 100 µg/mL; with MCF7, 83.6 µg/mL (≈ 241 µM).
For `C=C1C(=O)[C@]23C[C@H]1CC[C@H]2[C@@]12CO[C@@]3(OC(C)=O)[C@@H](O)[C@@H]1C(C)(C)C=CC2=O` the same measures were 13.1 µg/mL (≈ 34 µM), 7.23 µg/mL (≈ 18.7 µM), 38.9 µg/mL (≈ 101 µM), 74.7 µg/mL (≈ 193 µM) and over 100 µg/mL.
